# Experimental data published in patent publication US6699834B1, “Method for treating cancer” (University of Maryland Biotechnology Institute, priority 1997, dated 2004).
# Bridge positions count the residues as written; N and C are the ends. Ends that are not written are not given here.
# Experiments:
# breast cancer cells = test: Trypan blue cell death assay, breast cancer cells; format: cell-based; conditions: 100 ug/ml
# Method: (§1) The hCG preparations, fractions of the early pregnancy urine and hCG APL™ SUPERDEX™ 200 fractionations (described herein), and certain β-hCG peptides were tested on prostate, lung, breast, and kidney cancer cells in vitro, and on prostate tumors in nude mice. […] The preparations fractions and peptides were also assayed using a clonogenic assay in which cells were seeded in methylcellulose in the presence or absence of test substance and then colonies were counted after a certain period of time. Cells were also examined for apoptosis by confocal microscopy.
# The effects of hCG preparations, hCG fractions and β-hCG peptides were also tested in breast cancer cells in vitro. Breast cancer cells were incubated with the hCG preparations, hCG fractions and β-hCG peptides in both the trypan blue viability assay and the clonogenic assay.
# lung cancer cells = test: Apoptosis by confocal microscopy, lung cancer cells; format: cell-based; conditions: 48 hours
# Method: (§2) The preparations fractions and peptides were also assayed using a clonogenic assay in which cells were seeded in methylcellulose in the presence or absence of test substance and then colonies were counted after a certain period of time. Cells were also examined for apoptosis by confocal microscopy. FIGS. 23A-F show confocal micrograms of lung cancer cells treated with the hCG or hCG related preparation and then stained with FITC labelled actin monoclonal antibody to visualize the cytoskeleton and propidium iodine to visualize the cells nucleus. Condensation of the nucleus and damage to the cytoskeleton are indications of apoptosis.
# prostate cancer cells [1] = test: Trypan blue cell death assay, prostate cancer cells; format: cell-based
# Method: as §1
# The effects of hCG preparations, hCG fractions and β-hCG peptides were tested in prostate cancer cells both in vitro and in vivo. Cells were incubated in either 10% fetal bovine serum (FBS) or 3% fetal bovine serum plus hCG preparations, hCG fractions and β-hCG peptides.
# prostate cancer cells [2] = test: Prostate cancers induced in nude mice; format: in vivo; conditions: peptide 200 μg per day, hCG APL 100 IU per day, systemic
# [3] = tested on: hematopoietic progenitor cells; test: Hematopoietic progenitor clonogenic assays (CFU-GEMM, BFU-e, CFU-GM); format: cell-based, human
# In short: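 Normal bone marrow and cord blood progenitors (2×10^5 cells/ml) grown in methylcellulose with hCG preparations at 200 IU/ml or α/β-subunits and peptides at 100 μg/ml. Colonies (aggregates >50 cells) counted after 10 days of culture.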
# [4] = tested on: Kaposi's Sarcoma induced in mice; test: Kaposi's Sarcoma tumors induced in mice by KS Y-1 cells; format: in vivo
# Method: The effects of the peptides on KS tumor cells were also evaluated in vivo in the KS mouse model. To induce KS tumors in the mice, 1×10^6/ml KS Y-1 cells in 50 μl PBS or saline were injected subcutaneously into immunodeficient mice (beige-XID-BNX mice). […] Methods for detection of apoptosis (from tissue biopsies) were used, as described in Lunardi-Iskandar et al.(1995, Nature 375:64-68). Briefly, the samples were stained in situ for the presence of cells with DNA fragmentation. Tissue slides from formalin-fixed tumors were treated with terminal deoxynucleotide transferase for extension of DNA ends (hydroxyl 3′) and incorporation of digoxigenin-11-dUTP according to the manufacturer's instructions (Oncor, Gaithersburg, Md.). Anti-digoxigenin antibody conjugated with the enzyme peroxidase allowed detection of apoptotic cells, which stain brown, whereas viable cells stain blue.
# Certain fractions were tested for activity in reducing Kaposi's Sarcoma lesions in the Kaposi's Sarcoma mouse model as described herein. In this assay, starting one week after injection of the KS Y-1 cells to induce Kaposi's sarcoma formation, the mice were injected subcutaneously with 100 IU hCG. […] After one week of the week of treatment with the hCG fractions, the KS lesions were examined for cell apoptosis and regression as described herein.
# Certain fractions of the APL™ hCG and early pregnancy urine were assayed for their ability to elicit apoptosis in Kaposi's Sarcoma lesions induced by injection of KS Y-1 cells in mice (n=3 mice for each treatment). The mice were administered 100 μl subcutaneously of the particular fraction each day for one week.
# prostate cancer cells [5] = test: Apoptosis by confocal microscopy, prostate cancer cells; format: cell-based; conditions: 48 hours
# Method: as §2, with “FIGS. 18A-H” for “FIGS. 23A-F”, “confocal micrographs” for “confocal micrograms”, “of prostate” for “of lung”, “with an” for “with the”, “with FITC-labelled” for “with FITC labelled”, “the cell” for “the cells”
# KS Y-1 and KS-SLK cells = test: Kaposi's Sarcoma clonogenic assay in cultured cells; format: cell-based, human; conditions: for inhibition of KS cell growth in clonogenic assays (in words): KS Y-1 and KS SLK
# In short: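 KS Y-1 or KS-SLK cells, 5×10^4 seeded in 0.8% methylcellulose, grown 10 days with or without hCG, β-hCG or β-hCG peptide preparations; well-formed colonies counted in triplicate wells.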
# HIV-1 transgenic mice = test: Survival, growth and weight of HIV-1 transgenic mouse pups; format: in vivo
# Method: The HIV-1 transgenic mice used for this study contain 7.4 kb of foreign DNA, including 5.1 kb of the HIV-1 proviral genome deleted in the gag and pol genes and 2.3 kb of vector (Dickie et al., 1991, Virology 185:109-119). […] In addition, these mice develop severe hyperkeratotic skin lesions with marked expression of gp 120 and nef genes (Kopp et al., 1993, AIDS Res. Hum. Retroviruses 9:267-275; Vasli et al., 1994, AIDS Res. Hum. Retroviruses 10:1241-1250).
# Finally, certain fractions were tested for their ability to increase survival, promote weight gain and reduce HIV-1 gene expression in HIV-1 transgenic mice as described herein.
# HIV-I transgenic pups administered hCG and hCG-related preparations for the first 5 days after birth through the mothers milk were monitored for survival at 10 days after birth.
# [6] = listed as cyclized β-hCG peptide of amino acids 44-57
substance,measurement,setting,value
"4. Circ 44-57: β-hCG 44-57 with cysteine substituted at position 44, circularized via disulfide bond (SEQ ID NO:26) (CLQGVLPALPQVVC; disulfide 1-14 (inferred))",% dead cells,breast cancer cells,42%
same,apoptosis,lung cancer cells,increased apoptosis
same,percentage of cell death (trypan blue),"prostate cancer cells [1]; 3% FBS, 200 μg/ml",39%
same,percentage of cell death (trypan blue),"prostate cancer cells [1]; 3% FBS, 300 μg/ml",50%
same,percentage of cell death (trypan blue),"prostate cancer cells [1]; 10% FBS, 200 μg/ml",29%
same,percentage of cell death (trypan blue),"prostate cancer cells [1]; 10% FBS, 300 μg/ml",38%
same,apoptosis of prostate cancer cells in vivo,prostate cancer cells [2],caused apoptosis of the prostate cancer cells in vivo
same,promotion of hematopoiesis (in words),[3]; listed as circularized 44-57,directly promoted
same,promotion of hematopoiesis (in words),[3]; [6],pro-hematopoietic activity
same,Pro-hematopoiesis in vitro Enhancement,"[3]; relative increase of hematopoietic colony cell number, hCG preparations 200 IU/ml, subunits and peptides 100 μg/ml",+++ (“+++” represents greater than 70% effect)
same,KS in vivo,[4]; inhibition of Kaposi's Sarcoma induced in mice,+++ (“+++” represents greater than 70% effect)
same,effect on KS tumors in mice (in words),"[4]; mouse, in vivo",extensive cell death
same,apoptosis,prostate cancer cells [5],increased apoptosis
same,inhibition of KS cell growth in clonogenic assays (in words),KS Y-1 and KS-SLK cells; listed as cyclic 44-57,strongest anti-tumor effects
same,inhibition of KS cell growth in clonogenic assays (in words),KS Y-1 and KS-SLK cells; [6],inhibited KS cell growth
same,KS in vitro,KS Y-1 and KS-SLK cells; inhibition of Kaposi's Sarcoma cell growth in vitro in cultured cells,+++ (“+++” represents greater than 70% effect)
same,weight gain / growth retardation and cachexia,HIV-1 transgenic mice; HIV-1 transgenic pups,higher weight gain than untreated mice
same,survival at 10 days after birth,HIV-1 transgenic mice; administered first 5 days after birth through mothers milk,promote survival
